According to paper PMC10187092 (Emerging Microbes & Infections, 2023):

How the values were obtained:
[1] = molecular target: SARS-CoV-2 3CLpro (Severe acute respiratory syndrome coronavirus 2, UniProt P0DTD1); type: cell-based
[2] = molecular target: SARS-CoV-2 3CLpro (wild-type) (Severe acute respiratory syndrome coronavirus 2, UniProt P0DTD1); type: cell-based

Row | Molecule | rescue of reporter expression in 3CLpro transfected cells [1] | potency in dose-response validation [2] | inhibition of 3CLpro [2]
1 | CCO[C@@H]1OC(=O)C[C@@H]1NC(=O)[C@@H]1CCCN1C(=O)[C@@H](NC(=O)c1ccc(N)c(Cl)c1)C(C)(C)C [Belnacasan] | failed to rescue reporter expression | – | –
2 | CC(C)(C)NC(=O)N[C@H](C(=O)N1C[C@H]2[C@@H]([C@H]1C(=O)NC(CC1CCC1)C(=O)C(N)=O)C2(C)C)C(C)(C)C (stereo partly drawn) [Boceprevir] | – | weak to moderate potency | –
3 | O=c1c2ccccc2[se]n1-c1ccccc1 [Ebselen] | – | – | no inhibition
4 | Cc1ccc(NC(=O)c2ccc(CN3CCN(C)CC3)cc2)cc1Nc1nc(-c2cccnc2)cs1 [Masitinib] | – | – | negative
5 | Ac-DEVD-CHO | failed to rescue reporter expression | – | –
6 | Z-FA-FMK | – | weak to moderate potency | –
